A short description of data set [1]: pH-dependent excitation and fluorescence spectra in buffer solution containing 50% acetonitrile. Type of data set: physicochemical. How it is done: To investigate a pH-dependent fluorescent emission of Compound 9, excitation spectra (“Excitation” in FIG. 1) and fluorescence spectra (“Fluorescence” in FIG. 1) were measured at pH 4.0 and 7.4 in buffer solution containing 50% acetonitrile.

The subject of data set [2] is Parkin-non-expressed HeLa cells. The data set is described as follows: Confocal laser microscopic detection of mitophagy, CCCP induction. The following applies: 100 nmol/L, 10 μM/L CCCP for 24 hours. The class given is cell-based.
Another data set relates to HeLa cells. The data set is described as follows: Mitophagy detection test using HeLa cells (starvation induction), fluorescent microscope. The class given is cell-based. The following applies: 100 nmol/L, 30 min, 1 μM Lyso Dye. How it is done:
HeLa cells were seeded on a μ-slide 8 well (Ibidi) and incubated in a CO2 incubator at 37° C. overnight. Compound 9 diluted with Hanks' HEPES buffer (100 nmol/L) was added and incubated for 30 minutes. A starvation induction was carried out by washing cultured cells with Hanks' HEPES buffer twice follow by adding plasma-free Krebs' buffer containing 1 μM glucagon and 7.5 μM pepstatin A and incubating at 37° C. for appropriate period. Then, the cultured cells were observed by a fluorescent microscope. To confirm the uptake of Compound 9 in lysosomes, 1 μM Lyso Dye diluted with Hanks' HEPES buffer was added to the cultured cells and incubated at 37° C. for 30 minutes.

Data set [3] deals with Parkin-expressed HeLa cells. In words: Flow cytometry (FCM) analysis of mitophagy, CCCP induction. The class given is cell-based. The following applies: 100 nmol/L, 10 μM/L CCCP for 24 hours. How it is done:
HeLa cells were seeded on a 24 well plate and incubated in a CO2 incubator at 37° C. overnight. Parkin plasmid was introduced using HilyMax (DOJINDO LABORATORIES) into the cells and the cells were further incubated overnight. The cultured cells were washed with a plasma-containing medium, to which Compound 9 diluted with Hanks' HEPES buffer (100 nmol/L) was added and incubated for 30 minutes. After washing with the plasma-containing medium, the cells were cultured in a cell culture medium containing 10 μM/L of CCCP for 24 hours. After washing with PBS, the cells were peeled off by trypsin and EDTA. The cells were collected by centrifuge, dispersed in 0.5 mL of HBSS and analyzed by FCM (BD FACS cant II).
(Flow cytometry measures light scatter and fluorescence of single cells or particles in a stream.)

Data set [4] concerns Parkin-expressed HeLa cells. The data set is described as follows: Confocal laser microscopic detection of mitophagy, CCCP induction. The class given is cell-based. The note with it: 100 nmol/L, 10 μM/L CCCP for 24 hours, 1 μM Lyso Dye. From the text:
Methods for inducing mitophagy include, in addition to a bulk method such as described in Example 3 above, a selective method mediated with Parkin gene and PINK1 enzyme. The latter involves Parkinson disease and the relationship with a quality control of dysfunctional mitochondria (For example, see Derek Narendra, Atsushi Tanaka, Der-Fen Suen and Richard J. Youle, J. Cell Biol., 2008, 183, 795-803.). To examine the mitochondria-selective detection of autophagy, Parkin-expressed HeLa cells were prepared and the mitophagy was induced by adding Compound 9 and carbonyl cyanide m-chlorophenyl hydrazone (CCCP), a mitochondrial uncoupler and incubating.
HeLa cells were seeded on a μ-slide 8 well (Ibidi) and incubated in a CO2 incubator at 37° C. overnight. Parkin plasmid was introduced using HilyMax (DOJINDO LABORATORIES) into the cells and the cells were incubated overnight. The cultured cells were washed with a plasma-containing medium, to which Compound 9 diluted with Hanks' HEPES buffer (100 nmol/L) was added and incubated for 30 minutes. After washing with the plasma-containing medium, the cells were cultured in a cell culture medium containing 10 μM/L of CCCP for 24 hours. After the occurrence of mitophagy was monitored by the fluorescent microscope, the cultured cells were further incubated with 1 μM Lyso Dye at 37° C. for 30 minutes.

Data set [5] in a line: Fluorescent intensity at various pH in buffer solution containing 50% DMSO. Type of data set: physicochemical. How it is done:
The fluorescent intensities of Compound 9 at various pH were measured in buffer solution containing 50% DMSO. […] Such increase takes place at more acidic side than that of naphthyl imide-type pH-responsive fluorescent compound.

SMILES strings stand for the structures.

As for `O=C(CCN1C(=O)c2ccc3c4cccc5c(N6CCN(Cc7ccc(CCl)cc7)CC6)ccc(c6ccc(c2c36)C1=O)c54)NCC[P+](c1ccccc1)(c1ccccc1)c1ccccc1.[Br-]` [Compound 9], in data set [1] (buffer solution containing 50% acetonitrile, pH 4.0 vs 7.4), the “fluorescent intensity at pH 4.0 compared with pH 7.4” value is on record as “higher than that at pH 7.4”. In addition, the “shift of maximum fluorescent wavelength to short-wavelength side” value in data set [1] (pH 4.0 vs pH 7.4, buffer solution containing 50% acetonitrile) was found to be 30 nm. Moreover, in data set [1] (polar solvent, leads to decrease of fluorescent intensity), the self-aggregation behaviour result is reported as “tends to form a self-aggregate in a polar solvent”. Also, the fluorescence from compound result in data set [2] was “faint”. Also, the “co-staining with Lyso Dye (uptake in lysosomes)” value in the data set with HeLa cells is “collateral stain took place”. Moreover, in data set [3], the “increase of fluorescent emission on induction of mitophagy using CCCP” value was 1.3 times. The “fluorescence from compound and co-staining with lysosome dye” value in data set [4] was “is observed as well as the collateral stain with a lysosome dye (Lyso Dye) is observed”. Also, the “change of fluorescent intensity responding to pH” value in data set [5] was “increases from a neutral region to an acidic region”.

These data come from patent publication US10787473B2, “PH responsive fluorescent compound, composition for detecting mitophagy using same, and method for detecting mitophagy within cells” (DOJINDO LABORATORIES, priority 2016, dated 2020).
